From PMC9645260, “Small-molecule inhibitors of P-Rex guanine-nucleotide exchange factors” (Small GTPases, 2022)

Target: T1, Ect2 (DHPH) (Homo sapiens, UniProt Q9H8V3)
T1 construct: The ITSN1 DHPH domains and Ect2 DHPH domains, produced in and purified from bacteria; host or cells: bacteria
T1 sequence (Q9H8V3 452-794 limits assumed): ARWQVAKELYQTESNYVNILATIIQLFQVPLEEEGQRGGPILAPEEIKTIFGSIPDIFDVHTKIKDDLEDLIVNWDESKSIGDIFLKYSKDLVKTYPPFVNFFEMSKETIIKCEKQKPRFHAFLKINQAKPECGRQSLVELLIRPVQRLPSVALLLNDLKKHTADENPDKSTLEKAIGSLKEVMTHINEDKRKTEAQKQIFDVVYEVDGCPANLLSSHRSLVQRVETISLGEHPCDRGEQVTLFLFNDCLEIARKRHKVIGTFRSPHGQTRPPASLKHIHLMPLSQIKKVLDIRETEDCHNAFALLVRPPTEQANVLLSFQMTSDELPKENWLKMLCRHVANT
Assay: Liposome-based GEF activity assay, Ect2
Format: biochemical
Conditions: 10 µM, 500 nM ECT2 DHPH
Experimental: Full-length N-terminally EE-tagged P-Rex1, P-Rex2, the P-Rex1 DH and DHPH domains and the P-Rex2 DH domain were produced in Sf9 cells using baculoviral transduction and were purified using anti-EE beads, as previously described. Briefly, frozen pellets from 500 ml of Sf9 culture infected with P-Rex expressing high-titre baculovirus were resuspended in ice-cold lysis Sf9-cell lysis buffer 2 (1x PBS, 1% Triton X-100, 5 mM EGTA, 1 mM EDTA, 25 mM NaF, 20 mM β-glycerophosphate, 1 mM DTT, 100 µM PMSF, 10 μg/ml each of leupeptin, pepstatin A, aprotinin and antipain) for 5 min and then ultracentrifuged at 118,000 × g for 1 h at 4°C. Supernatants were incubated with pre-washed anti-EE beads for 90 min on ice with end-over-end rotation. […] Protein concentration and purity were determined by coomassie staining of SDS-PAGE gels. […]
Liposome-based GEF activity assays were carried out essentially as described, except that GEFs were incubated with inhibitor compounds prior to the assay. […] Small GTPases were isolated using anti-EE antibody-coupled Sepharose beads or glutathione Sepharose beads, as appropriate, by incubation on ice for 90 min with end-over-end rotation, four washes in ice-cold wash buffer and resuspension of beads in Ultima Gold scintillation fluid (Perkin Elmer). ^35S-GTPγS incorporation was assessed by scintillation counting (Packard 1600TR, Liquid Scintillation Analyser).

Question: Which “effect on GEF activity of Ect2” value does the source give for COc1ccc(-c2[nH]nc3c2C(c2ccc(-c4ccc(Cl)cc4)o2)C(C#N)=C(N)O3)cc1 (stereo not shown) [PREX-in1, 6-amino-4-[5-(4-chlorophenyl)-2-furyl]-3-(4-methoxyphenyl)-2,4-dihydropyrano[2,3-c]pyrazole-5-carbonitrile] here?
Answer: none of the other GEFs were affected
